From patent US4588727A, “Intermediates for pyrrolo[1,2-b][1,2,5]triazepines” (Hoechst-Roussel Pharmaceuticals Inc., priority 1985, dated 1986)
Counter-ions that a name gives are not always drawn.

How the values were obtained:
mice [1] = assay: 2-phenyl-1,4-benzoquinone-induced writhing test in mice (PQW, analgesia); assay type: in vivo; details: Mus musculus, sc, read-out: PQW (% decrease)
Source text: Compounds I and II of the present invention are useful as analgesic agents due to their ability to alleviate pain in mammals. […] Exptl. Biol. Med., 95, 729 (1957)].

mice [2] = assay: supramaximal electroshock assay (SES, anticonvulsant); assay type: in vivo; details: Mus musculus, ip, male mice, at peak activity time
Experimental: Compounds I and II of the present invention are useful as anticonvulsant agents. […] Groups of male mice (18-30 grams) are used. Drugs are prepared using distilled water and if insoluble, a surfactant is added. Control animals receive vehicle. Drugs are routinely administered intraperitoneally. The dosage volume is 10 ml/kg.
The animal's eyes are placed across the output terminals of an A.C. shocker that delivers 206 volts rms for 300 milliseconds. Electrode paste coats the animal's eyes at the point of contact with the terminals.
Protection is expressed as normalized percent inhibition relative to vehicle control. [formula]
A time response is carried out using 6 animals per group. Animals are tested at 30, 60 and 120 minutes postdrug. Additional time periods are tested if indicated by previous tests.
When the peak activity time has been determined, a dose response is initiated, using 10 animals per group at that time period. The ED50 and 95% confidence interval are calculated by computerized probit analysis.

[3] = target: benzodiazepine recognition sites; assay: benzodiazepine (Bz) binding, rat cerebral cortex membrane preparation; details: rat cortex membranes, 2 nM radioactive benzodiazepine, pH 6.9, 20 minutes at 0-4° C.
Source text: This assay is used to determine potential anxiolytic or anticonvulsant activity via direct interaction with benzodiazepine recognition sites in a membrane preparation obtained from rat brain.
Benzodiazepine is a widely prescribed phychoactive agent. It has various pharmacological properties, including anti-anxiety, anticonvulsant, muscle relaxant and hypnotic effects. The relationships between the pharmacological activities of this compound and the GABA receptor-chlorideionophore complex have been studied in the past. The values of IC50 listed in Table II were determined in the following manner. See Squires and Braestrup, "Benzodiazepine Receptors in Rat Brain", Nature, 266, 732-734 (1977). […]
a. 78.1 g of Tris-HCl q.s. to 1 liter b. 60.6 g of Tris-base q.s to 1 liter c. Adjust pH of Tris HCl to 6.9 at 25° C. by adding Tris base to obtain 0.5M Tris buffer, pH 6.9. d. Make a 1:10 dilution with distilled H2 O to obtain 0.05M Tris buffer, pH 6.9 2. 0.32M sucrose: 21.9 g of sucrose q.s. to 200 ml
3. Radioactive benzodiazepine: this marker compound is made up to a concentration of 80 nM and 50 μl of the solution is added to each tube, which yields a final concentration of 2 nM in the assay.
4. Test Compounds: 1 mM stock solution is made up in a suitable vehicle and serially diluted, such that the final concentration in the assay ranges from 10^-5 to 10^-8 M.
Male Wistar rats are decapitated and the brain rapidly removed. The cerebral cortices are removed, weighed and homogenized with a homogenizer in 20 volumes of ice-cold 0.32M sucrose. This homogenate is contrifuged at 1,000 g for 10 minutes, the pellet is discarded and the supernatant is recentrifuged at 30,000 g for 20 minutes. The resulting membrane pellet is resuspended in 40 volumes of 0.05M Tris buffer, pH 6.9.
1 ml 0.05M Tris buffer, pH 6.9
70 μl 0.5M Tris buffer, pH 6.9
50 μl radioactive benzodiazepine solution
20 μl vehicle or a solution containing an appropriate concentration of test drug 300 μl tissue suspension prepared above
A tube containing the […] listed above is incubated at 0°-4° C. in an ice bath. A 300 μl aliquot of the tissue suspension is added to the tube and the sample is then incubated for 20 minutes at 0°-4° C. and thereafter vacuum-filtered using a suitable filter. The filter is immediately rinsed with three 5 ml washes of ice-cold Tris buffer, pH 6.9. The radioactivity of the filter is counted in 10 ml of a counting cocktail. The value of the radioactive counting obtained for a sample containing a test drug is compared to the counting obtained for the sample not containing the test drug and the ratio between the two computed. The IC50 value for a given test drug is defined as that concentration of the test drug at which said ratio becomes 50% (IC stands for inhibitory concentration).

rats = assay: Geller-conflict paradigm with rats (anxiolytic); assay type: in vivo; details: i.p., CRF-conflict responding versus previous day's control trial
Source text: Compounds I and II of the present invention are useful as anxiolytic agents. […] See Geller, Irving and Seifter, Psychopharmacologia Vol. 1, 482-492 (1962). Male rats are used as test subjects. They are housed individually and food and water are available ad libitum until they are 300 to 400 grams prior to the start of training. Subsequently they are food deprived until their body weight is reduced to approximately 80% of original and it is maintained at this level by a restricted food diet.
The programming and test equipment consists of solid state devices, shockers and cages within sound-attenuated environmental enclosures. The data is recorded on both solid state print-out counters and cumulative recorders. The cages are equipped with a houselight, a single-lever, cue-lights, a liquid dipper, a speaker and a grid-floor connected to a shocker. Sweetened condensed milk delivered by the liquid-dipper serve as the positive reinforcement for all subjects.
The subjects are trained to lever-press for the milk reward in two distinct response-reward sections. In the anxiety or "conflict" segment, signaled by onset of both tone and cue-lights, a dipper of milk is delivered in response to each lever-press (CRF schedule of reinforcement). However lever presses during this period are also accompanied by a 40 m sec pulse of aversive footshock through the grid-floor. This creates a "conflict between (1) easy access to milk reward and (2) the simultaneous presentation of a painful foot-shock. This "conflict" period is 3 minutes in duration.
During the other segment of this paradigm, the lever presses produces a dipper of milk only at variable intervals of time from 60 to 210 seconds with an average reward of once per 2 minutes (VI-2 min.). No shocks are ever administered during this VI phase of testing which is 15 minutes in duration.
The test procedure consists of four 15 minute (non-shock) VI segments where reinforcement was available on a limited basis. Each VI period is followed by a 3 minute "CRF"-conflict phase when reinforcement is constantly available but always accompanied by an aversive foot-shock. The shock-level is titrated for each subject to reduce the CRF responding to a total of less than 10 lever-presses during the entire test. The rats are tested four days a week. Drugs are administered on the third day and the performance is compared to the previous days control trial. The VI responses are used to evaluate any general debilitating drug effects, while the CRF responses are used to evaluate any "anti-anxiety" effects as indicated by increased responding during the "CRF-conflict" period.
All test compounds are administered by intraperitoneal injection in volumes of 10 cc/kg and the pretreat interval is usually one-half hour.

## CN(C(=O)CN)n1cccc1C(=O)c1ccccc1Cl [1-(N-Methyl-aminoacetamido)-2-(2-chlorobenzoyl)pyrrole hydrobromide]
Mice [1]
  inhibition in vivo at 20 mg/kg: 42%

## Br.CN(C(=O)CN)n1cccc1C(=O)c1ccccc1F [1-(N-Methyl-aminoacetamido)-2-(2-fluorobenzoyl)pyrrole hydrobromide]
Mice [2]
  ED50: 8.2 mg/kg
[3]
  IC50: < 10000 nM
rats; dose 40 mg/kg
  Geller dose/CRF: CRF: 11.2

## NCC(=O)Nn1cccc1C(=O)c1ccccc1 [1-Aminoacetamido-2-benzoylpyrrole hydrochloride]
Mice [1]
  inhibition in vivo at 20 mg/kg: 23%

## Br.CN1C(=O)CN=C(c2ccccc2)c2cccn21 [1-Methyl-5-phenyl-1H-pyrrolo[1,2-b][1,2,5]triazepin-2(3H)-one hydrobromide]
Mice [1]
  inhibition in vivo at 20 mg/kg: 26%
[3]
  IC50: 340 nM
rats; dose 40 mg/kg
  Geller dose/CRF: CRF: 22.6

## O=C(CNC(=O)OCc1ccccc1)Nn1cccc1C(=O)c1ccccc1 [1-[(Carbobenzyloxyamino)acetamido]-2-benzoylpyrrole]
Mice [1]
  inhibition in vivo at 20 mg/kg: 50%

## CC(C)(C)OC(=O)NCC(=O)Nn1cccc1C(=O)c1ccccc1Cl [1-[(t-Butoxycarbonylamino)acetamido]-2-(2-chlorobenzoyl)pyrrole]
Mice [1]
  inhibition in vivo at 20 mg/kg: 49%

## CC(C)(C)OC(=O)NCC(=O)Nn1cccc1C(=O)c1ccccc1F [1-[(t-Butoxycarbonylamino)acetamido]-2-(2-fluorobenzoyl)pyrrole]
Mice [1]
  inhibition in vivo at 20 mg/kg: 21%

## CN(C(=O)CNC(=O)OC(C)(C)C)n1cccc1C(=O)c1ccccc1Cl [1-[N-Methyl-(t-butoxycarbonylamino)acetamido]-2-(2-chlorobenzoyl)pyrrole]
Mice [1]
  inhibition in vivo at 20 mg/kg: 47%

## CN1C(=O)CN=C(c2ccccc2Cl)c2cccn21 [5-(2-Chlorophenyl)-1-methyl-1H-pyrrolo[1,2-b][1,2,5]triazepin-2(3H)-one]
Mice [2]
  ED50: 17.9 mg/kg
Mice [1]
  inhibition in vivo at 20 mg/kg: 36%
[3]
  IC50: 22.7 nM
rats; dose 40 mg/kg
  Geller dose/CRF: CRF: 1.4

## O=C1CN=C(c2ccccc2Cl)c2cccn2N1 [5-(2-Chlorophenyl)-1H-pyrrolo[1,2-b][1,2,5]triazepin-2(3H)-one]
[3]
  IC50: 204 nM
rats; dose 60 mg/kg
  Geller dose/CRF: CRF: 15

## CN1C(=O)CN=C(c2ccccc2F)c2cccn21.Cl [5-(2-Fluorophenyl)-1-methyl-1H-pyrrolo[1,2-b][1,2,5]triazepin-2(3H)-one hydrochloride]
Mice [2]
  ED50: 43.6 mg/kg
Mice [1]
  inhibition in vivo at 20 mg/kg: 27%
[3]
  IC50: 62.1 nM

## O=C1CN=C(c2ccccc2F)c2cccn2N1 [5-(2-Fluorophenyl)-1H-pyrrolo[1,2-b][1,2,5]triazepin-2(3H)-one]
[3]
  IC50: 586 nM
rats; dose 40 mg/kg
  Geller dose/CRF: CRF: 2.4

## O=C1CN=C(c2ccccc2)c2cccn2N1 [5-Phenyl-1H-pyrrolo[1,2-b][1,2,5]triazepin-2(3H)-one]
Mice [1]
  inhibition in vivo at 20 mg/kg: 31%
[3]
  IC50: 6730 nM

## CN1C(=O)CN=C(c2ccccc2F)c2ccc(Cl)n21.Cl [8-Chloro-5-(2-fluorophenyl)-1-methyl-1H-pyrrolo[1,2-b][1,2,5]triazepin-2(3H)-one hydrochloride]
Mice [2]
  ED50: 36.1 mg/kg
Mice [1]
  inhibition in vivo at 20 mg/kg: 19%
[3]
  IC50: 699 nM

## Cc1ccc(C(=O)c2ccccc2F)n1NC(=O)CNCC(=O)Nn1c(C)ccc1C(=O)c1ccccc1F [Di-[(2-(2-fluorobenzoyl)-5-methyl-1H-pyrrol-1-yl)-2-acetamido]amine hydrochloride]
Mice [1]
  inhibition in vivo at 20 mg/kg: 68%

## CN(C)CCNn1cccc1C(=O)c1ccccc1Cl [[2-(2-Chlorobenzoyl)-1H-pyrrol-1-yl]-2-(dimethylamino)ethylamine hydrobromide]
Mice [1]
  inhibition in vivo at 20 mg/kg: 72%

## CCOC(=O)N(CCN(C)C)n1cccc1C(=O)c1ccccc1Cl [[2-(2-Chlorobenzoyl)-1H-pyrrol-1-yl]-2-[(dimethylamino)ethyl]carbamic acid, ethyl ester hydrobromide]
Mice [1]
  inhibition in vivo at 20 mg/kg: 41%
